26 molecules from patent US8748608B2, “4-phenylpiperazine derivatives with functionalized linkers as dopamine D3 receptor selective ligands and methods of use” (The United States of America as Represented by the …, priority 2007, dated 2014) can be followed below.

Data set [1] addresses human dopamine D3 receptor (Homo sapiens (Human), UniProt P35462). Put plainly: Human D2-like receptor competition binding in HEK cells, D3. The following applies: for D2/D3: ratio of Ki at D2 over Ki at D3. From the text:
(§1) Human dopamine D2-long (D2) and D3 (D3) receptors were expressed in HEK cells. In brief, stably transfected HEK cells expressing the human D2-long and the D3 dopamine receptor were developed using the pIRES bicistronic expression vector (CLONTECH; Palo Alto, Calif.). […] For comparison, human dopamine D4 (D4) receptors were obtained from HEK 293 cells stably transfected with a PCR product of a human cDNA coding for the D4.4 form of the human D4 dopamine receptor.
(§2) The procedures to determine the binding affinities at the human dopamine D2-like receptors, the binding affinities at the serotonin 5HT1A, 5HT2A and 5HT2c receptors and functional mitogenesis assay are known in the art. […] Both of these references are incorporated by reference.

Data set [2] addresses human dopamine D2-long (D2) receptor (Homo sapiens (Human), UniProt P14416). As to the kind of experiment: Human D2-like receptor competition binding in HEK cells, D2. The following applies: hD2L.
Description: as §1, §2

A further data set addresses serotonin 5HT2A receptor (Homo sapiens (Human), UniProt P28223). As to the kind of experiment: Serotonin receptor binding, 5HT2A. The following applies: ratio of affinities.
Description: as §2

The target in data set [3] is human D4.4 dopamine receptor (Homo sapiens (Human), UniProt P21917). As to the kind of experiment: Human D2-like receptor competition binding in HEK cells, D4. The settings on record: for Ki: HEK 293 cells, hD4.4; for D4/D3 Ki ratio: head printed D4/D2, values correspond to D4 Ki over D3 Ki.
Description: as §1, §2

In a further data set the target is serotonin 5HT2c receptor (Homo sapiens (Human), UniProt P28335). As to the kind of experiment: Serotonin receptor binding, 5HT2c. The settings on record: ratio of affinities, 5HT2c over D3.
Description: as §2

Another data set addresses serotonin 5HT1A receptor (Homo sapiens (Human), UniProt P08908). Put plainly: Serotonin receptor binding, 5HT1A. The following applies: ratio of affinities. The text has this:
(§3) The procedures to determine the binding affinities at the human dopamine D2-like receptors, the binding affinities at the serotonin 5HT1A, 5HT2A and 5HT2c receptors and functional mitogenesis assay are known in the art. See J. Med. Chem. 2005, 48, 839-848. See also, NIDA Research Monograph #178, Proceedings of the College of Drug Dependence, p. 440-466, 1998. Both of these references are incorporated by reference.

Data set [4] addresses human dopamine D3 receptors in CHO cells (Homo sapiens (Human), UniProt P35462). Put plainly: D3 stimulation of mitogenesis (agonist assay). It counts as cell-based. The following applies: CHOp cells; for EC50: read-out: partial agonist activity: EC50, D3 (converted). Here is the method:
The cells were incubated at 37° C. in α-MEM with 10% FBS, 0.05% penicillin-streptomycin, and 200 μg/mL of G418. After 48 hours, the cells were rinsed twice with serum-free α-MEM and incubated for 24 hours at 37° C. In the functional assay for agonism, the medium was removed and replaced with 90 μl of serum-free α-MEM and 10 μl of test compound in sterile water; in the antagonist assay, the test compound was diluted in sterile water plus 30 nM quinpirole. After another 24-hour incubation at 37° C., 0.25 μCi of [^3H]thymidine was added to each well and the plates were further incubated for 2 hours at 37° C. The cells were then trypsinized, and the plates were filtered and counted as usual in the art. Quinpirole was run on every plate as an internal standard.
as §3

The mark [5] stands for this setting: HEK cells, hD3, read-out: D3 Ki.
Where [6] appears, read: Table 3, unit inferred, with spread, read-out: D3 binding affinity.

Each structure is given as a SMILES string. Counter-ions that a name gives are not always drawn. Like-named read-outs stand apart in the source and are kept apart here.

human dopamine D3 receptor, sequence (P35462 whole entry): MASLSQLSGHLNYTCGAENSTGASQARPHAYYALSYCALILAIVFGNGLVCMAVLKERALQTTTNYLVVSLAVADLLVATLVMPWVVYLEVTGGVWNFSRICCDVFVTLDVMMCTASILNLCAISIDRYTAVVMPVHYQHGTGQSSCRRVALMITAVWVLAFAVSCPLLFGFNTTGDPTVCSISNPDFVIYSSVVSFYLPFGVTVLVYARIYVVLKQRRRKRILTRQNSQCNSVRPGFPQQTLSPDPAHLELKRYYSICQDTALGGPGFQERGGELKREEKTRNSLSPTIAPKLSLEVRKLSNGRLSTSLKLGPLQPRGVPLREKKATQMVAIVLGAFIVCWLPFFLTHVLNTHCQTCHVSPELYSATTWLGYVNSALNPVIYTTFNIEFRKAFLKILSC
human dopamine D3 receptors in CHO cells, sequence (P35462 whole entry): as above
human D4.4 dopamine receptor, sequence (P21917 whole entry): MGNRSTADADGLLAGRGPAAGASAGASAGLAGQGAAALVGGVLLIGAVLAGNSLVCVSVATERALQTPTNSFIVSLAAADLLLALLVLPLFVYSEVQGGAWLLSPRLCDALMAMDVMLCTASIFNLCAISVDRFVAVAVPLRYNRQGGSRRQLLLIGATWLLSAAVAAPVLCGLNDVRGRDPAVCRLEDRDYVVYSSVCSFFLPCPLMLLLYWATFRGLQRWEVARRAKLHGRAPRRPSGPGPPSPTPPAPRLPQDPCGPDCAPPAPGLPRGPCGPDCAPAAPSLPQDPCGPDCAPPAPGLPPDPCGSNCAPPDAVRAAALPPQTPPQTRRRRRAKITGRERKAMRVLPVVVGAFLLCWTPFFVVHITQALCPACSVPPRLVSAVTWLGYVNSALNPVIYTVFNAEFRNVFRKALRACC
human dopamine D2-long (D2) receptor, sequence (P14416 whole entry): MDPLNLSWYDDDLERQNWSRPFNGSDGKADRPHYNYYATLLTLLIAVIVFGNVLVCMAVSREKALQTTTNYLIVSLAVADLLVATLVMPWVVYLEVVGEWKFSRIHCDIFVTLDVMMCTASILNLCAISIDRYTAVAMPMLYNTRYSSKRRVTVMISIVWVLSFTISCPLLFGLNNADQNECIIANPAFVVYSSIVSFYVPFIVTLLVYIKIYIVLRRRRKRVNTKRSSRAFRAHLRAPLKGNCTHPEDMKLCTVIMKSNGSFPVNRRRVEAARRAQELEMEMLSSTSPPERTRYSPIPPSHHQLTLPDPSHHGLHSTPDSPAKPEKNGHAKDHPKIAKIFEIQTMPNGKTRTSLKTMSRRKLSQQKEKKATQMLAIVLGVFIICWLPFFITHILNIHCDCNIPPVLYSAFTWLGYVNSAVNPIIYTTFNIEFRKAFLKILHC
serotonin 5HT2A receptor, sequence (P28223 whole entry): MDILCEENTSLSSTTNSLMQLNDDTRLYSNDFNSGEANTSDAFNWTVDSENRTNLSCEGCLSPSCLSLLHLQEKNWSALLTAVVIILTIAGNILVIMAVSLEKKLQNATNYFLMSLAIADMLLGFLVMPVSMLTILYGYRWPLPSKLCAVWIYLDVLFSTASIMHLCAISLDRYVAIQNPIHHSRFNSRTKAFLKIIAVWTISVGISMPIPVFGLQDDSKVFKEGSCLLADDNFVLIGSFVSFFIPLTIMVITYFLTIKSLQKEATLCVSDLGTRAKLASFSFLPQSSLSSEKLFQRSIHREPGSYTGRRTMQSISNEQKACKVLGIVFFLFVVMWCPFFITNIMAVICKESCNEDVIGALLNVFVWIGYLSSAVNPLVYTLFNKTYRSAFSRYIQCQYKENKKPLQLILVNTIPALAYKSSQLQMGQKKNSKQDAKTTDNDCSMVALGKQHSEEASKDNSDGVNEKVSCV
serotonin 5HT1A receptor, sequence (P08908 whole entry): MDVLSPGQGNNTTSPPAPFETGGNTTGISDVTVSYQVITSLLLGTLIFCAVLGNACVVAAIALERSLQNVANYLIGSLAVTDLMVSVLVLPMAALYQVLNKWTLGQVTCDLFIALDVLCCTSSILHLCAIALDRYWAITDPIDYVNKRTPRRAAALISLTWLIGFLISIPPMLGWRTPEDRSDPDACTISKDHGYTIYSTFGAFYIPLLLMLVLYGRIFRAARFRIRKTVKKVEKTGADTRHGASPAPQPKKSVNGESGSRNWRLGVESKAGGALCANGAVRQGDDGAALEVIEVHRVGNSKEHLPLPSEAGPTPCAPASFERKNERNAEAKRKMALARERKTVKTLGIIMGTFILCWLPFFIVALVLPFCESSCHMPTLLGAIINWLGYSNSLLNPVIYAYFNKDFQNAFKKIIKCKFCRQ
serotonin 5HT2c receptor, sequence (P28335 33-458): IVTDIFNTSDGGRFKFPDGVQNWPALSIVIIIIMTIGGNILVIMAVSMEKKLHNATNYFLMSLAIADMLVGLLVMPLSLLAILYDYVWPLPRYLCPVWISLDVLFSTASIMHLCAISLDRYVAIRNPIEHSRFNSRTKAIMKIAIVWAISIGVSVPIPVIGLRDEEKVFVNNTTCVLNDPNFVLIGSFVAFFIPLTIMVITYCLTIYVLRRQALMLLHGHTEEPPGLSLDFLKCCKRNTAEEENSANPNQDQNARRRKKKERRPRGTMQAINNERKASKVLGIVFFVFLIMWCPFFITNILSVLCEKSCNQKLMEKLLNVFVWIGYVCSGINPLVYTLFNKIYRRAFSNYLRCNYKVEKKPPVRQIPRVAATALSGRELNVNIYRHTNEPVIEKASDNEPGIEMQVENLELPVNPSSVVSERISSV

For the molecule `COc1ccccc1N1CCN(CCCCNC(=O)c2ccc3c(c2)Cc2ccccc2-3)CC1` (as salt: hydrochloride) [Compound 7, N-(4-(4-(2-Methoxyphenyl)piperazin-1-yl)butyl)-9H-fluorene-2-carboxamide], the melting point lay in the range of 208 to 210 °C.
Regarding `COc1ccccc1N1CCN(C/C=C/CNC(=O)c2ccc(-c3ccccn3)cc2)CC1` (as salt: hydrochloride) [Compound 14, N-(4-(4-(2-Methoxy-phenyl)-piperazin-1-yl)-trans-but-2-enyl)-4-pyridin-2-yl-benzamide], the melting point is 168 to 170 °C.
Same read-out and setting: for `COc1ccccc1N1CCN(C/C=C/CNC(=O)c2ccc3c(c2)Cc2ccccc2-3)CC1` (as salt: hydrochloride) [Compound 15, N-(4-(4-(2-methoxyphenyl)piperazin-1-yl)-trans-but-2-enyl)-9H-fluorene-2-carboxamide] the value was 224 to 226 °C; for `O=C(NC/C=C/CN1CCN(c2cccc(Cl)c2Cl)CC1)c1ccc(-c2cccc(=O)[nH]2)cc1` (as salt: oxalate) [Compound 9, N-(4-(4-(2,3-Dichloro-phenyl)-piperazin-1-yl)-trans-but-2-enyl)-4-(6-oxo-1,6-dihydro-pyridin-2-yl)-benzamide], 153 to 154 °C; for `Cc1cccc(-c2ccc(C(=O)NC/C=C/CN3CCN(c4cccc(Cl)c4Cl)CC3)cc2)n1` (as salt: oxalate) [Compound 10, N-(4-(4-(2,3-Dichloro-phenyl)-piperazin-1-yl)-trans-but-2-enyl)-4-(6-methyl-pyridin-2-yl)-benzamide], 125 to 126 °C.
Take `O=C(NC/C=C/CN1CCN(c2cccc(Cl)c2Cl)CC1)c1ccc(-c2cccc[n+]2[O-])cc1` (as salt: oxalate) [Compound 12, N-(4-(4-(2,3-Dichloro-phenyl)-piperazin-1-yl)-trans-but-2-enyl)-4-(pyridin-N-oxide-2-yl)-benzamide]: the melting point fell in the range of 153 to 154 °C.
Molecule `O=C(NCCC(O)CN1CCN(c2cccc(Cl)c2Cl)CC1)c1ccc2c(c1)Cc1ccccc1-2` (stereo not shown) (as salt: oxalate) [Compound 17] came in with a melting point of 188 to 190 °C.
With `O=C(NC/C=C/C[N+]1([O-])CCN(c2cccc(Cl)c2Cl)CC1)c1ccc(-c2ccccn2)cc1` [Compound 13, 4-(2,3-Dichlorophenyl)-1-(4-(4-(pyridin-2-yl)benzamido)-trans-but-2-enyl)-piperazine 1-oxide], the Ki stood at 49.2 nM in data set [1] (setting [5]) and 1160 nM in data set [2]. Moreover, the D2/D3 in data set [1] amounted to 24.
For the molecule `O=C(NCCC(O)CN1CCN(c2cccc(Cl)c2Cl)CC1)c1ccc2c(c1)Cc1ccccc1-2` (stereo not shown) [Compound 17], the 5HT2A/D3 on serotonin 5HT2A receptor is given as 303. For the same molecule, the Ki stood at 16400 nM in data set [3], 1.8 nM in data set [1] (setting [5]), 1.8 nM in data set [1] (setting [6]) and 319 nM in data set [2]. Further, the “D4/D3 Ki ratio” value in data set [3] was 9110. The D2/D3 in data set [1] is 177. Also, at serotonin 5HT2c receptor, the 5HT2c/D was found to be 1572. Moreover, the 5HT1A/D3 at serotonin 5HT1A receptor is 1006. Moreover, the “partial agonist activity: % stimulation, D3” value in data set [4] amounted to 26%. Besides, the EC50 in data set [4] was 42 ± 1.3 nM.
In the case of `COc1ccccc1N1CCN(CC(O)CCNC(=O)c2ccc3c(c2)Cc2ccccc2-3)CC1` (stereo not shown) [Compound 19, N-(3-Hydroxy-4-(4-(2-methoxyphenyl)piperazin-1-yl)-butyl)-9H-fluorene-2-carboxamide], the Ki in data set [3] is 1230 nM; in data set [1] (setting [5]) it was 1.8 nM; in data set [2] it was 249 nM. The “D4/D3 Ki ratio” value in data set [3] worked out at 683. For the same molecule, in data set [1], the D2/D3 amounted to 138.
On to `CC(=O)OC(CCNC(=O)c1ccc(-c2ccccn2)cc1)CN1CCN(c2cccc(Cl)c2Cl)CC1` (stereo not shown) [Compound 20, 1-(4-(2,3-Dichlorophenyl)piperazin-1-yl)-4-(4-(pyridin-2-yl)-benzamido)-butan-2-yl acetate], for which the 5HT2A/D3 on serotonin 5HT2A receptor was determined as 7. The values for the Ki in data set [1] (setting [5]), in data set [1] (setting [6]) and in data set [2] were 11.7 nM, 11.7 ± 1 nM and 134 nM, respectively. Moreover, in data set [1], the D2/D3 was determined as 11. The 5HT2c/D at serotonin 5HT2c receptor amounted to 7. Besides, on serotonin 5HT1A receptor, the 5HT1A/D3 is 10. The “partial agonist activity: % stimulation, D3” value in data set [4] was 47%. For the same molecule, the EC50 in data set [4] is 3.9 ± 1.4 nM.
Turning to `O=C(NCC(O)CCN1CCN(c2cccc(Cl)c2Cl)CC1)c1ccc2c(c1)Cc1ccccc1-2` (stereo not shown) [Compound 22, N-(4-(4-(2,3-Dichlorophenyl)piperazin-1-yl)-2-hydroxybutyl)-9H-fluorene-2-carboxamide], the Ki in data set [1] (setting [5]) amounted to 2.5 nM; in data set [2] it was 84 nM. The D2/D3 in data set [1] turned out to be 34.
For `COc1ccccc1N1CCN(CCC(O)CNC(=O)c2ccc3c(c2)Cc2ccccc2-3)CC1` (stereo not shown) [Compound 23, N-(4-(4-(2-Methoxyphenyl)piperazin-1-yl)-2-hydroxybutyl)-9H-fluorene-2-carboxamide] the same measures were 1.3 nM, 68.4 nM and 53.
As to `COc1ccccc1N1CCN(CC(O)CCNC(=O)c2cc3ccccc3[nH]2)CC1` (stereo not shown) [Compound 35], the Ki worked out at 1920 nM in data set [3], 1.37 nM in data set [1] (setting [5]) and 249 nM in data set [2]. Moreover, the “D4/D3 Ki ratio” value in data set [3] is 1401. For the same molecule, the D2/D3 in data set [1] worked out at 181.
As to `O=C(NCC(O)CCN1CCN(c2cccc(Cl)c2Cl)CC1)c1cc2ccccc2[nH]1` (stereo not shown) [Compound 36], the figures for the Ki in data set [1] (setting [5]) and in data set [2] were 0.26 nM and 28.4 nM, respectively. Besides, in data set [1], the D2/D3 is given as 109.
The matching figures for `COc1ccccc1N1CCN(CCC(O)CNC(=O)c2cc3ccccc3[nH]2)CC1` (stereo not shown) [Compound 37]: 0.5 nM, 52.5 nM and 105.
For `CCCOc1ccccc1N1CCN(CC(O)CCNC(=O)c2cc3ccccc3[nH]2)CC1` (stereo not shown) [Compound 38], the Ki in data set [1] (setting [5]) came out at 62.1 nM; in data set [2], 47.1 nM. Also, the D2/D3 in data set [1] stood at 1.
Regarding `COc1ccccc1N1CCN(CC(O)CCNC(=O)c2cc3ccccc3s2)CC1` (stereo not shown) [Compound 39], the Ki in data set [1] (setting [5]) was 4.6 nM; in data set [2], 337 nM. Also, the D2/D3 in data set [1] turned out to be 73.
For `O=C(NCCC(O)CN1CCN(c2cccc(Cl)c2Cl)CC1)c1cc2ccccc2o1` (stereo not shown) [Compound 42] the same measures were 0.98 nM, 185 nM and 188.
With `COc1ccccc1N1CCN(CC(O)CCNC(=O)c2cc3ccccc3o2)CC1` (stereo not shown) [Compound 43], the Ki in data set [1] (setting [5]) stood at 5.4 nM; in data set [2], 233 nM. Further, the D2/D3 in data set [1] was 43.
The matching figures for `COc1ccccc1N1CCN(CC(O)CCNC(=O)c2cc3cc(I)ccc3o2)CC1` (stereo not shown) [Compound 44]: 2.2 nM, 158 nM and 71.
Regarding `O=C(NCCC(O)CN1CCN(c2cccc(Cl)c2Cl)CC1)c1cc2cc(I)ccc2o1` (stereo not shown) [Compound 45], the values for the Ki in data set [1] (setting [5]) and in data set [2] were 3.5 nM and 697 nM, respectively. The D2/D3 in data set [1] is reported as 200.
For `O=C(NCCC(O)CN1CCN(c2cccc(Cl)c2Cl)CC1)c1cc2cc(F)ccc2o1` (stereo not shown) [Compound 46] the same measures were 1.6 nM, 245 nM and 149.
With `COc1ccccc1N1CCN(CC(O)CCNC(=O)c2cc3cc(F)ccc3o2)CC1` (stereo not shown) [Compound 47], the Ki in data set [1] (setting [5]) came out at 0.65 nM; in data set [2], 180 nM. Also, in data set [1], the D2/D3 is listed as 276.
As for `COc1ccc2oc(C(=O)NCCC(O)CN3CCN(c4cccc(Cl)c4Cl)CC3)cc2c1` (stereo not shown) [Compound 48], the Ki stood at 1.3 nM in data set [1] (setting [5]) and 244 nM in data set [2]. In addition, the D2/D3 in data set [1] is listed as 185.
In the case of `COc1ccc2oc(C(=O)NCCC(O)CN3CCN(c4ccccc4OC)CC3)cc2c1` (stereo not shown) [Compound 49], the Ki in data set [1] (setting [5]) came to 1 nM; in data set [2] it was 174 nM. Besides, the D2/D3 in data set [1] is given as 172.
